In patent US11174250B2, “Substituted carboxamides as inhibitors of WDR5 protein-protein binding” (PROPELLON THERAPEUTICS INC., priority 2016, dated 2021):
Like-named read-outs stand apart in the source and are kept apart here.

Tests used:
WDR5 protein = WDR5 protein (Homo sapiens (Human), UniProt P61964); test: Surface Plasmon Resonance (SPR) assay; format: binding; settings: for residence time: τ=1/koff, read-out: Residence Time (t, min)
MLL1-WRAD2 complex = MLL1-WRAD2 complex (Homo sapiens (Human), UniProt P61964); test: MLL1-WRAD2 enzyme assay (in vitro methyl transferase assay); format: biochemical
Procedure: Reaction was initiated with 1 μM 3H-SAM and incubated for 1 hour at 30° C. Reaction mixture was transferred to P81 filter-paper and washed with PBS before detection.

[1] = Table 4, effect of Fluoro-substitution, read-out: IC50 (MLL1)
[2] = SPR, Table 1, read-out: WDR5 binding affinity (KD)
[3] = SPR, Table 2, read-out: WDR5 binding affinity SPR (KD)
[4] = MLL1-WRAD2 assay, read-out: In vitro MLL1 activity (IC50)

| Compound | Kd (WDR5 protein; [2]) [nM] | Kd (WDR5 protein; [3]) [nM] | residence time (WDR5 protein; SPR) [min] | IC50 (MLL1-WRAD2 complex; [4]) [nM] | also measured |
| --- | --- | --- | --- | --- | --- |
| CN1CCN(c2ccc(-c3cc(CN4CCC(F)CC4)ccc3F)cc2NC(=O)c2c[nH]c(=O)cc2C(F)(F)F)CC1 [drawing 287] | – | – | – | – | τ (WDR5 protein; Table 4, effect of Fluoro-substitution): 5.44 min; Kd (WDR5 protein; Table 4, effect of Fluoro-substitution, read-out: KD (SPR)): 11 nM; IC50 (MLL1-WRAD2 complex; [1]): 592 nM |
| CN1CCN(c2ccc(-c3cc(CNC4CCC(F)(F)CC4)ccc3F)cc2NC(=O)c2c[nH]c(=O)cc2C(F)(F)F)CC1 [Example 42, N-(5′-(((4,4-difluorocyclohexyl)amino)methyl)-2′-fluoro-4-(4-methylpiperazin-1-yl)-[1,1′-biphenyl]-3-yl)-6-oxo-4-(trifluoromethyl)-1,6-dihydropyridine-3-carboxamide] | 5 | 5 | 4.43 | 2280 | – |
| CN1CCN(c2ccc(-c3cc(CN4CCOCC4)ccc3F)cc2NC(=O)c2cc(O)cc(F)c2F)CC1 [Example 48, 2,3-difluoro-N-(2′-fluoro-4-(4-methylpiperazin-1-yl)-5′-(morpholinomethyl)-[1,1′-biphenyl]-3-yl)-5-hydroxybenzamide] | 93 | 93 | 0.61 | 21300 | – |
| CN1CCN(c2ccc(-c3ccc(CNC4CCCCC4)cc3F)cc2NC(=O)c2c[nH]c(=O)cc2C(F)(F)F)CC1 [Example 34, N-(4′-((cyclohexylamino)methyl)-2′-fluoro-4-(4-methylpiperazin-1-yl)-[1,1′-biphenyl]-3-yl)-6-oxo-4-(trifluoromethyl)-1,6-dihydropyridine-3-carboxamide] | 21 | 21 | 0.26 | 13700 | – |
| CN(C)C1CCN(c2ccc(-c3cc(CN4CCOCC4)ccc3F)cc2NC(=O)c2c[nH]c(=O)cc2C(F)(F)F)C1 (stereo not drawn) [Example 87, N-(4-(3-(dimethylamino)pyrrolidin-1-yl)-2′-fluoro-5′-(morpholinomethyl)-[1,1′-biphenyl]-3-yl)-6-oxo-4-(trifluoromethyl)-1,6-dihydropyridine-3-carboxamide] | – | – | – | 3890 | – |
| CN1CCN(c2ccc(-c3cc(CN4CCOCC4)ccc3F)cc2NC(=O)c2c[nH]c(=O)cc2C(F)(F)F)CC1 [drawing 289] | – | – | – | – | IC50 (MLL1-WRAD2 complex; [1]): 939 nM |
| CNc1cc(C(F)(F)F)c(C(=O)Nc2cc(-c3cc(CN4CCOCC4)ccc3F)ccc2N2CCN(C)CC2)cn1 [Example 108, N-(2′-fluoro-4-(4-methylpiperazin-1-yl)-5′-(morpholinomethyl)-[1,1′-biphenyl]-3-yl)-6-(methylamino)-4-(trifluoromethyl)nicotinamide] | > 200 | > 200 | – | – | – |
| Cc1cc(C(=O)Nc2cc(-c3ccc(OC4CCOCC4)nc3F)ccc2N2CCN(C)CC2)cc(C)c1F [Example 19, 4-fluoro-N-(5-(2-fluoro-6-((tetrahydro-2H-pyran-4-yl)oxy)pyridin-3-yl)-2-(4-methylpiperazin-1-yl)phenyl)-3,5-dimethylbenzamide] | 71 | 71 | 1.44 | – | – |
| CN1CCN(c2ccc(-c3cc(CN4CCOCC4)ccc3F)cc2NC(=O)c2ccc(=O)[nH]c2)CC1 [Example 105, N-(2′-fluoro-4-(4-methylpiperazin-1-yl)-5′-(morpholinomethyl)-[1,1′-biphenyl]-3-yl)-6-oxo-1,6-dihydropyridine-3-carboxamide] | 1950 | 1950 | – | – | – |
| C[C@@H]1CN(c2ccc(-c3ccc(N4CCOCC4)cc3F)cc2NC(=O)c2c[nH]c(=O)cc2C(F)(F)F)C[C@H](C)N1C [Example 118, N-(2′-fluoro-4′-morpholino-4-((3S,5R)-3,4,5-trimethylpiperazin-1-yl)-[1,1′-biphenyl]-3-yl)-6-oxo-4-(trifluoromethyl)-1,6-dihydropyridine-3-carboxamide] | – | 6 | 7.2 | – | Kd (WDR5 protein): 5.6 nM |
